Legend:
Assay type in all cases: in vivo, Wistar rats
sciatic nerve [1] = assay: Histomorphometric study on fragments of the sciatic nerve, prevention study (Example 1); details: day 70 after induction of diabetes; for Number of blood vessels: 10 microscopic fields
Method: Male Wistar, with 200-250 grams of body weight, received a subcutaneous injection of streptozotocin, at 75 mg/kg in sodium citrate buffer. Water was then replaced by a 10% sucrose solution during the next 24 h, to prevent deaths caused by hypoglycemia. Glucose levels in blood were monitored every morning during the next 72 hours after the injection. Only animals with sustained glucose values above 15 mmol/L were used. Rats were housing at 4 per cage and fed in the conventional way. A concurrent group of other 80 rats received citrate buffer without streptozotocin and was handled in a similar fashion to the diabetic group. The average value for glycemia during the 72 hours in this group was 5.87 mmol/L.
All treatments were conducted during 8 weeks, starting one week after streptozotocin injection. The composition used contained 75 μg of human recombinant EGF/ml. Several types of observations were conducted in the animals under study:
Once the treatment was concluded, animals were sacrificed at day 70 after induction of diabetes, 10 days after the last dose was given, and the analysis described above is was completed. Animals were sacrificed by an overdose of anesthesia and perfused with saline buffer pH 7.4. A total of ten animals per experimental group were included for histomorphometric studies, and an equivalent number of rats were used for biochemical determinations. In both systems the sciatic nerves from both limbs were dissected; fragments were kept at −70° C. until processed. The samples taken for histological and/or histomorphometric studies were stained with hematoxilin/eosin and toluidine blue. At least five fragments of the same nerve were quantitatively studied using MADIP program. The fragments were included in blocks of celloidine and gelatin, and those blocks were horizontal and transversally sliced. The following histological indicators were evaluated: • Total number of blood vessels (in epineural/perineural) in 10 microscopic fields using 10× as constant magnification in longitudinal cuts of the nerve. • Percentage of demyelinated fibers. Evaluated by averaging the values per microscopic field (×20, at least five fields). • Percentage of myelin or non-myelin fibers with lesions (dilated or distorted) per microscopic field (×20, at least five fields). • Percentage of endoneurial collagenization (moderated: 25 to 50%; severe: more than 50% of the endoneurial area in transversal slices, and at least three different sections.

right sciatic nerve = assay: Laser Doppler Perfusion Imaging of blood perfusion of a peripheral nerve, reversion study (Example 2); details: established diabetic neuropathy, 100 μg EGF in 1 ml i.p. 3 days a week for one month
Text: The right sciatic nerve of rats was used as a model. Ten animals were included for each one of the experimental groups. A similar number of non diabetic rats were used to calculate the reference values. A Laser Doppler Perfusion Imaging (LDPI) system was used. Data of perfusion in peripheral tissues to the nerve were programmed as zero values. Control animals received saline during two months before the measurement. All determinations were done under the same conditions of anesthesia and environmental conditions. They are reflected in Table 5. The aim of this study was to evaluate the neurorestoration effect of the pharmaceutical composition. Male Wistar rats between 200-250 grams of body is weight received a subcutaneous injection of streptozotocin at 75 mg/kg in sodium citrate buffer, and were allowed to evolve until 120 days after disease induction. All rats used in this experiment had shown sustained glucose levels above 15 mmol/L. Animals were handled and fed as previously described. A concurrent control group was set, where animals received saline instead of streptozotocin. […] After this period an electrophysiological characterization of all rats were done and animals were split in two random treatment groups: Group II. Animals received the pharmaceutical composition with 100 μg of EGF in 1 ml, 3 days a week, by intraperitoneal route. […]

sciatic nerve [2] = assay: Histomorphometric study on fragments of the sciatic nerve, reversion study (Example 2); details: established diabetic neuropathy, 100 μg EGF in 1 ml i.p. 3 days a week, evaluation after 30 days
Method: (§1) The aim of this study was to evaluate the neurorestoration effect of the pharmaceutical composition. Male Wistar rats between 200-250 grams of body is weight received a subcutaneous injection of streptozotocin at 75 mg/kg in sodium citrate buffer, and were allowed to evolve until 120 days after disease induction. All rats used in this experiment had shown sustained glucose levels above 15 mmol/L. Animals were handled and fed as previously described. A concurrent control group was set, where animals received saline instead of streptozotocin. […] After this period an electrophysiological characterization of all rats were done and animals were split in two random treatment groups:
(§2) Group II. Animals received the pharmaceutical composition with 100 μg of EGF in 1 ml, 3 days a week, by intraperitoneal route.
(§3) One month after conclusion of the treatment with either EGF containing composition or saline, and […] after disease induction, animals were sacrificed by an overdose of anesthesia and perfused with saline buffer pH 7.4. A total of ten animals per experimental group were included for histomorphometric studies, and an equivalent number of rats were used for biochemical determinations. In both systems the sciatic nerves from both limbs were dissected. The procedures were similar to those described for the neuropathic damage prevention assay. Samples taken for histological and o histomorphometric studies were stained with hematoxilin/eosin and toluidine blue. At least five fragments of the same nerve were quantitatively studied using MADIP program. The fragments were included in OCT blocks, post-fixed with glutaraldehyde, and sliced horizontal and transversally. The histological indicators assessed have been described above as well as the procedures used for the processing and evaluation: • Total number of blood vessels (in epineural/perineural) in 10 microscopic fields using 10× as constant magnification in longitudinal cuts of the nerve. • Percentage of demyelinated fibers. Evaluated by averaging the values per microscopic field (×20, at least five fields). • Percentage of myelin or non-myelin fibers with lesions (dilated or distorted) per microscopic field (×20, at least five fields). • Percentage of endoneurial collagenization (moderated: 25 to 50%; severe: more than 50% of the endoneurial area in transversal slices, and at least three different sections.

[3] = system: Redox state in fragments of sciatic nerve; assay: Redox profile in fragments of sciatic nerve, reversion study (Example 2); details: established diabetic neuropathy, 100 μg EGF in 1 ml i.p. 3 days a week for one month
Method: as §1, §2, §3
Ten animals from each group were used for the biochemical determinations in the is fragments of the sciatic nerve collected. The following biochemical parameters were studied:
Redox Profile: • Total Superoxide Dismutase (tSOD) enzymatic activity total. • Catalase enzymatic activity. • Intra-axonal accumulation of total hydroperoxides (THP). • Intra-axonal accumulation of malonyldialdehyde (MDA).

[4] = Treatment group 1 (once weekly i.p., 8 weeks)
[5] = Treatment group 3 (three times a week i.p., 8 weeks)

With “EGF containing pharmaceutical composition: Composition with human recombinant EGF: 75 μg/ml in Example 1, 100 μg in 1 ml in Example 2, given intraperitoneally” the “Number of blood vessels” value (sciatic nerve [1]; [4]) was 111.33 ± 14.5, the “% of collagenized area” value (sciatic nerve [1]; [4]) was 42.69 ± 14.71% and the “% of demyelinated fibers” value (sciatic nerve [1]; [4]) was 51.2 ± 17.94%. The “% of fibers with lesions” value (sciatic nerve [1]; [4]) was 60.12 ± 11%, the “Number of blood vessels” value (sciatic nerve [1]; [5]) was 158.6 ± 26.12 and the “% of collagenized area” value (sciatic nerve [1]; [5]) was 13.45 ± 11.82%. The “% of demyelinated fibers” value (sciatic nerve [1]; [5]) was 35.56 ± 12.18%, the “% of fibers with lesions” value (sciatic nerve [1]; [5]) was 41.38 ± 10.26% and the “Laser Doppler perfusion of the sciatic nerve” value (right sciatic nerve) was 934 ± 60.18 LDPI Units. For the same substance, the “% of collagenized area” value (sciatic nerve [2]) was 46.3 ± 9.5%, the “% of demyelinated fibers” value (sciatic nerve [2]) was 50.6 ± 12.3% and the “% of fibers with lesions” value (sciatic nerve [2]) was 52.6 ± 8.3%. The “No. of blood vessels” value (sciatic nerve [2]; 10 microscopic fields) was 86.5 ± 14.6, the Catalase activity [3] was 86.1 ± 6.5 units per milligram of protein per minute and the “MDA (malonyldialdehyde)” value [3] was 0.1 ± 0.03 nmol/mg of protein. For the same substance, the “THP (total hydroperoxides)” value [3] was 55.8 ± 12.7 nmol/mg of protein and the “tSOD (total Superoxide Dismutase activity)” value [3] was 1988.4 ± 101.6 units per milligram of protein per minute.
